# Laboratory results taken from ChEMBL document CHEMBL1126892, “Comparative molecular field analysis of in vitro growth inhibition of L1210 and HCT-8 cells by some pyrazoloacridines” (J Med Chem, 1993).
# Experiments:
# [1] = system: L1210; test: Growth inhibition against mouse leukemia L1210 cell line; assay type: functional, cell-based
# [2] = system: HCT-8; test: Growth inhibition against human colon carcinoma HCT-8 cell line; assay type: functional, cell-based
Structure (SMILES),IC50 [1],IC50 [2]
CCCOc1ccc2c(c1)-c1nn(CCN(CC)CC)c3ccc([N+](=O)[O-])c(c13)N2,0.469 µM,0.031 µM
C=Cn1nc2c3c(c([N+](=O)[O-])ccc31)N(C)c1ccccc1-2,> 10 µM,–
CCN(CC)CCn1nc2c3c(c(/N=C/N(C)C)ccc31)N(C)c1ccccc1-2,0.785 µM,0.297 µM
CCCCOc1ccc2c(c1)-c1nn(CCNCCO)c3ccc([N+](=O)[O-])c(c13)N2,0.646 µM,0.339 µM
COc1ccc2c(c1)-c1nn(CCN(C)C)c3ccc([N+](=O)[O-])c(c13)N2,0.396 µM,0.105 µM
CCN(CC)CCN1Nc2c3ccccc3nc3c([N+](=O)[O-])ccc1c23,0.192 µM,0.185 µM
CCOc1ccc2c(c1)-c1nn(CCN(C)C)c3ccc([N+](=O)[O-])c(c13)N2,0.275 µM,0.025 µM
CCN(CC)CCN1Nc2c3cc(S(C)(=O)=O)ccc3nc3c([N+](=O)[O-])ccc1c23,1.83 µM,0.774 µM
CCN(CC)CCN1Nc2c3cc(N(C)C)ccc3nc3c([N+](=O)[O-])ccc1c23,0.896 µM,0.317 µM
Cc1ccc2c(c1)-c1nn(CCNCCO)c3ccc([N+](=O)[O-])c(c13)N2,0.592 µM,0.255 µM
CCOc1ccc2c(c1)-c1nn(CCNCCO)c3ccc([N+](=O)[O-])c(c13)N2,0.325 µM,0.082 µM
CN(C)CCCN1Nc2c3cc(O)ccc3nc3c([N+](=O)[O-])ccc1c23,0.002 µM,–
O=[N+]([O-])c1ccc2c3c(c4ccccc4nc13)NN2CCNCCO,0.218 µM,0.152 µM
CCN(CC)CCn1nc2c3c(c([N+](=O)[O-])ccc31)N(C)c1ccc(OC)cc1-2,0.605 µM,0.308 µM
CCN(CC)CCN1Nc2c3ccccc3nc3c(NC(C)=O)ccc1c23,> 10 µM,–
CN(C)CCN1Nc2c3cc(N(C)C)ccc3nc3c([N+](=O)[O-])ccc1c23,0.601 µM,0.164 µM
COc1ccc2c(c1)-c1nn(CCNCCO)c3ccc([N+](=O)[O-])c(c13)N2,0.45 µM,0.193 µM
CCN(CC)CCN1Nc2c3cc(OC(=O)C(C)(C)C)ccc3nc3c([N+](=O)[O-])ccc1c23,0.01 µM,0.01 µM
CCN(CC)CCn1nc2c3c(c(N)ccc31)N(C)c1ccccc1-2,> 10 µM,1.56 µM
CCOc1ccc2c(c1)-c1nn(CCCN(C)C)c3ccc([N+](=O)[O-])c(c13)N2,–,0.055 µM
CCN(CC)CCCN1Nc2c3cc(OC)ccc3nc3c([N+](=O)[O-])ccc1c23,1.33 µM,0.764 µM
CCN(CC)CCN1Nc2c3cc(OC)ccc3nc3c([N+](=O)[O-])cc([N+](=O)[O-])c1c23,0.399 µM,0.066 µM

Structure (SMILES),IC50 [1],IC50 [2]
CCOc1ccc2c(c1)-c1nn(CCN(CC)CC)c3ccc([N+](=O)[O-])c(c13)N2,–,0.114 µM
CCN(CC)CCN1Nc2c3cccc(OC)c3nc3c([N+](=O)[O-])ccc1c23,0.645 µM,0.506 µM
C=CCN1c2ccccc2-c2nn(CCNCCO)c3ccc([N+](=O)[O-])c1c23,2.71 µM,1.22 µM
CN1Nc2c3ccccc3nc3c([N+](=O)[O-])ccc1c23,> 10 µM,–
O=[N+]([O-])c1ccc2c3c(c4ccccc4nc13)NN2CCO,> 10 µM,–
CCN(CC)CCN1c2ccccc2-c2nn(CCN(CC)CC)c3ccc([N+](=O)[O-])c1c23,0.877 µM,0.788 µM
CCN(CC)CCn1nc2c3c(c([N+](=O)[O-])ccc31)N(C)c1ccccc1-2,0.618 µM,0.901 µM
CN(C)CCCN1Nc2c3cc(OC(=O)C(C)(C)C)ccc3nc3c([N+](=O)[O-])ccc1c23,0.008 µM,0.027 µM
COc1ccc2c(c1)-c1nn(CCCN(C)C)c3ccc([N+](=O)[O-])c(c13)N2 [PYRAZOLOACRIDINE],0.424 µM,0.136 µM
CC(=O)Oc1ccc2nc3c([N+](=O)[O-])ccc4c3c(c2c1)NN4CCCN(C)C,0.001 µM,0.011 µM
CCN(CC)CCN1Nc2c3cc(OC)ccc3nc3c([N+](=O)[O-])ccc1c23,0.469 µM,0.123 µM
COc1ccc2c(c1)-c1nn(CCO)c3ccc([N+](=O)[O-])c(c13)N2,> 10 µM,> 10 µM
CCN(CC)CCN1Nc2c3cc(OCc4ccccc4)ccc3nc3c([N+](=O)[O-])ccc1c23,2.68 µM,1.14 µM
CN1c2ccccc2-c2nn(CCNCCO)c3ccc([N+](=O)[O-])c1c23,0.51 µM,0.518 µM
CCN(CC)CCN1Nc2c3cc(OC(C)=O)ccc3nc3c([N+](=O)[O-])ccc1c23,0.004 µM,0.005 µM
CSc1ccc2c(c1)-c1nn(CCCN(C)C)c3ccc([N+](=O)[O-])c(c13)N2,0.513 µM,0.352 µM
COc1ccc2c(c1)-c1nn(CCN(C)C)c3c([N+](=O)[O-])cc([N+](=O)[O-])c(c13)N2,0.049 µM,0.015 µM
CCN(CC)CCN1Nc2c3cc(O[Si](C)(C)C(C)(C)C)ccc3nc3c([N+](=O)[O-])ccc1c23,0.006 µM,0.006 µM
CCN(CC)CCN1Nc2c3cc(C)ccc3nc3c([N+](=O)[O-])ccc1c23,0.863 µM,0.786 µM
CCNCCN1Nc2c3cc(OC)ccc3nc3c([N+](=O)[O-])ccc1c23,0.208 µM,0.124 µM
CCCCOc1ccc2c(c1)-c1nn(CCN(CC)CC)c3ccc([N+](=O)[O-])c(c13)N2,1.18 µM,0.073 µM
